Data: patent US11633392B2 (priority 2016, dated 2023)

Tests used:
[1] = biological target: T1, human opioid δ receptor (Homo sapiens, UniProt P41143); assay: Opioid receptor function test (Lance Ultra cAMP Kit), δ receptor; format: cell-based
T1 construct: host or cells: CHO cells
Protocol: (§1) Opioid Receptor Function Test
(§2) The functional activities of the compounds provided by the present invention on the μ, δ, and κ opioid receptors were investigated.
(§3) The test was performed by using Lance Ultra cAMP Kit (PerkinElmer) according to a method predetermined for the kit. In the evaluation of the agonistic activity, CHO cells expressing each of the human opioid receptors (δ, μ, and κ, accession numbers and catalog numbers are mentioned below) and 10 μM of each test compound were reacted for 30 minutes in an assay buffer (1× HBSS, […], pH 7.4, […] (isobutylmethylxanthine), 7.5% BSA) in the presence of forskolin. Subsequently, the cAMP detection reagent included in the kit was added, and 1 hour afterward, time-resolved fluorescence measurement was performed by using the EnVision plate reader (PerkinElmer). The test compounds and the control drugs (δ: SNC80, μ: DAMGO, κ: U-69593) were evaluated in a concentration range of 10^−12 to 10^−5 M, a dose-response curve of each test compound was obtained from the fluorescence values at 665 nm, and EC50 value and the Emax value were calculated. The Emax value was calculated as a ratio of the maximum reaction of the test compound to the maximum reaction of each control drug, which is taken as 100%.
(§4) • δ: Catalog No. CT4607, Accession No. NM_000911.2 • μ: Catalog No. CT4605, Accession No. NM_000914 • κ: Catalog No. CT4606, Accession No. NM_000912 (ChanTest Corporation)

[2] = biological target: T2, human opioid μ receptor (Homo sapiens, UniProt P35372); assay: Opioid receptor function test (Lance Ultra cAMP Kit), μ receptor; format: cell-based
T2 construct: host or cells: CHO cells
T2 sequence (P35372 whole entry): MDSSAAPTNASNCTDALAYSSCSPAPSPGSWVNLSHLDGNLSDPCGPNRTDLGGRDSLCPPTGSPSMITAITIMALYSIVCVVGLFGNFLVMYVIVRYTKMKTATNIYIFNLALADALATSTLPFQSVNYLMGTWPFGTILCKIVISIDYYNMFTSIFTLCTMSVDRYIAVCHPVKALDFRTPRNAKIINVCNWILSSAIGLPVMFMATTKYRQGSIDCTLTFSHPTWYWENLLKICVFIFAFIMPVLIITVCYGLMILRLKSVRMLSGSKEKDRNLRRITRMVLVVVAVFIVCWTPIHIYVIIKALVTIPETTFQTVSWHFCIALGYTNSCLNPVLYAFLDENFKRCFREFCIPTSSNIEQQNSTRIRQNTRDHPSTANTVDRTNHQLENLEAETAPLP
Protocol: as §1, §2, §3, §4

[3] = tested on: olfactory bulbectomized (OBX) rat; assay: Hyperemotional reaction inhibition test using olfactory bulbectomized (OBX) rat; format: in vivo; details: for hyperemotional reactions of the OBX rats compared with the solvent administration group: maintained until day 14
From the text: Hyperemotional Reaction Inhibition Test Using Olfactory Bulbectomized (OBX) Rat
According to the method of Saitoh et al. (Saitoh A, Yamada M, Yamada M, Takahashi K, Yamaguchi K, Murasawa H, Nakatani A, Tatsumi Y, Hirose N, and Kamei J: Antidepressant-like effects of the delta-opioid receptor agonist SNC80 ((+)-4-[(alphaR)-alpha-[(2S,5R)-2,5-dimethyl-4-(2-propenyl)-1-piperazinyl]-(3-methoxyphenyl)methyl]-N,N-diethylbenzamide) in an olfactory bulbectomized rat model, Brain Res., 2008, 1208:160-169), OBX rats were prepared by extracting the rat olfactory bulbs, and then breeding the rats in an isolated circumstance. Hyperemotional reaction was evaluated on the day 14 after the surgical operation and before the division into groups, and 2 hours after the administration on the days 1, 4, 7, 10, and 14 of the administration period according to the hyperemotional reaction evaluation criteria prepared by Gomita et al. (Gomita et al., Behavioral pharmacological and electroencephalographical studies of 7-chloro-1-methyl-5-phenyl-1H-1,5-benzodiazepine-2,4-(3H,5H:)-dione (Clobazam), Folia Pharmacologica Japonica, 82, 267 (1983)). The drug was subcutaneously administered once a day continuously over 14 days. As a positive control drug, fluoxetine, which is a selective serotonin reuptake inhibitor (SSRI), was used. As the solvent, a 1% cyclodextrin (CD) was used.

[4] = tested on: ICR male mice; assay: Reserpine-induced Parkinson's disease model mouse; format: in vivo; details: reserpine-treated mice, 10 mg/kg s.c.
Protocol: Reserpine-Induced Parkinson's Disease Model Mouse
ICR male mice (5 weeks old, Japan SLC) were obtained, and used after an acclimation period (5 to 12 days).
PD model was prepared with reference to the report of Hille et al. (Exp. Neurol., 2001, 172:189). It was prepared by intraperitoneally administering reserpine (5 mg/kg) 18 to 24 hours before the start of the test. The test was performed by subcutaneously administering a test compound to each mouse on the day of the test, immediately putting the mouse into a cage for monitoring locomotor activity, and measuring the migration distance over 60 minutes.

T1 sequence (P41143 whole entry): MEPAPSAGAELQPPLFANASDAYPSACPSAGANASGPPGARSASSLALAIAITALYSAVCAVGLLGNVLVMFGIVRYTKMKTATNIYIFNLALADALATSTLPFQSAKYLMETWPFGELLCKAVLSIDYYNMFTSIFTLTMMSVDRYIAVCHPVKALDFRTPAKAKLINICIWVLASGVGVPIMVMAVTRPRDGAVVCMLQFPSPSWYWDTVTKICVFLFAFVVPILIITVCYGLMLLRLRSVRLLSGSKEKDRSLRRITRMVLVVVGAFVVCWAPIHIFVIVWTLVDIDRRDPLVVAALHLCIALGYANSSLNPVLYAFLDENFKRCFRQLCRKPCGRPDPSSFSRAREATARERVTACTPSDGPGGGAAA

O=C(c1cccc(=O)[nH]1)N1C[C@H]2C[C@@]34CC[C@@H]1[C@@H]2[C@@]31CCN(CC2CC2)[C@@H]4Cc2ccc(O)cc21 [Example 7, 6-((1S,3aR,5aS,6R,11bR,11cS)-14-(cyclopropylmethyl)-10-hydroxy-2,3,3a,4,5,6,7,11c-octahydro-1H-6,11b-(epiminoethano)-1,5a-methanonaphtho[1,2-e]indole-3-carbonyl)pyridin-2(1H)-one]
EC50 ([1]; CHO cells expressing human δ receptor, cAMP, in the presence of forskolin): < 3 nM | Emax ([1]; ratio to maximum reaction of control drug SNC80 taken as 100%): 99% | EC50 ([2]; CHO cells expressing human μ receptor, cAMP, in the presence of forskolin, read-out: μ receptor EC50 value): > 1 nM | Emax ([2]; ratio to maximum reaction of control drug DAMGO taken as 100%): 10% | hyperemotional reactions of the OBX rats compared with the solvent administration group ([3]; 0.1 mg/kg s.c. once a day, from the day 4 of the administration period): significantly reduced | hyperemotional reactions of the OBX rats relative to sham surgery group ([3]; 0.1 mg/kg s.c. once a day, on the day 7 of the administration period): restored the condition even to a level comparable to that of the rats of the sham surgery group | hyperemotional reactions of the OBX rats compared with the solvent administration group ([3]; 1 mg/kg s.c. once a day, from the day 1 of the administration period): significantly reduced | hyperemotional reactions of the OBX rats relative to sham surgery group ([3]; 1 mg/kg s.c. once a day, on the day 4 of the administration period): restored the condition even to a level comparable to that of the rats of the sham surgery group | exploratory behavior ([4]; 60 minutes): significantly increased | standing up behavior ([4]; not significant (P=0.16)): tendency of increase
